The subject of the assay is spontaneously hypertensive rats (SHR). The assay is described as follows: Mean arterial blood pressure (MABP) and heart rate recording in conscious, unrestrained SHR after acute oral administration. Format: in vivo, rat. The following applies: 1 hour (FIG. 2).

Description: RB150, the ACEI, enalapril (supplied from Merck Sharp and Dohme research Lab), and the ARB, valsartan (Sigma-Aldrich), were dissolved in sterile saline and adjusted to pH 7.4 for in vivo administration.
Male spontaneously hypertensive rats (SHR), weighing 250 to 350 g, were obtained from Charles River Laboratories (L'Arbresle, France) and animals were kept under artificial light (12-hours light/12-hours dark cycle) with a normal standard diet and water given ad libitum. The experiments were conducted according to the National Institutes of Health Guide for the Care and Use of Laboratory Animals.
Twelve weeks male SHR were anesthetized with pentobarbital sodium (60 mg/kg, i.p, Centravet). Catheters were implanted in the femoral artery. The femoral arterial catheter was brought under the skin and emerged at the nape of the neck. After surgery, each rat was given an intraperitoneal injection of 0.1 mL of penicillin-streptomycin (50,000 units/mL; Sigma) and allowed to recover for at least 24 hours before the experiment. […] Each experiment was monitored by using a COBE CDX III pressure transducer (Phymep, Paris, France) connected to the MacLab system (Phymep) consisting of a MacLab hardware unit and chart software running on a Macintosh computer. […]

`N[C@@H](CCS(=O)(=O)O)CSSC[C@@H](N)CCS(=O)(=O)O` [RB150, (3S,3S′) 4,4′-disulfanediylbis(3-aminobutane 1-sulfonic acid)]: for the setting “RB150 alone 150 mg/kg po”, the “BP decrease 1 hour after drug administration” value is given as “did not induce any significant BP decrease”.
As for `CCOC(=O)[C@H](CCc1ccccc1)N[C@@H](C)C(=O)N1CCC[C@H]1C(=O)O` [enalapril], the “BP decrease 1 hour after drug administration” value (enalapril alone 3 mg/kg po) was “did not induce any significant BP decrease”.
